Structures can show the parent of a compound that is named as a salt.
What follows are compounds tested against T1, human A3AR (Homo sapiens, UniProt P0DMS8) (assay: LOPAC library primary screen: single concentration (10 μM) inhibition of 25 nM CA200645 binding, PHERAstar FS). Settings: not given.
T1 construct: expressed in transfected cells
T1 sequence (P0DMS8 1-318): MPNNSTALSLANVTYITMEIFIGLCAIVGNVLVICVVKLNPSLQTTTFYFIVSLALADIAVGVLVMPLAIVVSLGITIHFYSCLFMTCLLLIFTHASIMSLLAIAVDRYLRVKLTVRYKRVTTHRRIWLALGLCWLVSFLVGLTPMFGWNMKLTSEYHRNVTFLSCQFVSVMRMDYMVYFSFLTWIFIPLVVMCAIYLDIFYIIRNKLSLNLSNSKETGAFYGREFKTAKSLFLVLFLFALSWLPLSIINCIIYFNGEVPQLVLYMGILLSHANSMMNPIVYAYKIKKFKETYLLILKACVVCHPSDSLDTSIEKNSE
For NC(=O)c1ncn([C@@H]2O[C@H](CO)[C@@H](O)[C@H]2O)n1 [Ribavirin], the “% 25 nM CA200645 binding” value was 103.3 ± 14.0%. In the case of N[C@@H](Cn1oc(=O)[nH]c1=O)C(=O)O [(+)-Quisqualic acid], the “% 25 nM CA200645 binding” value is reported as 106.4 ± 10.3%. With Cc1cc(NC(=O)Nc2ccc3c(ccn3C)c2)sn1 [SB 204741] the “% 25 nM CA200645 binding” value was 88.1 ± 14.4%. Cn1c(=O)c2c(nc(C=Cc3cccc(Cl)c3)n2C)n(C)c1=O [8-(3-Chlorostyryl)caffeine] was tested, and the “% 25 nM CA200645 binding” value was 79.6 ± 7.9%. C=CCN1CC[C@]23CCCC[C@H]2[C@H]1Cc1ccc(O)cc13 [Levallorphan tartrate] was tested, and the “% 25 nM CA200645 binding” value was 105.9 ± 7.3%. In the case of 17alpha-hydroxyprogesterone, the “% 25 nM CA200645 binding” value is reported as 104.8 ± 10.6%. NC(=O)COc1c(F)cc(SCCNS(=O)(=O)c2ccccc2)cc1F was tested, and the “% 25 nM CA200645 binding” value was 109.8 ± 13.1%. COC(=O)c1c(C)[nH]c(C)c1C(=O)c1ccccc1Cc1ccccc1 [FPL 64176] was tested, and the “% 25 nM CA200645 binding” value was 74.2 ± 6.7%. For CNC[C@H](O)c1ccc(O)c(O)c1 [(-)-Epinephrine bitartrate], the “% 25 nM CA200645 binding” value was 100.5 ± 6.3%. In the case of CN(C)CCCC1(c2ccc(F)cc2)OCc2cc(C#N)ccc21 (centres unmarked) [Citalopram hydrobromide], the “% 25 nM CA200645 binding” value is reported as 97.2 ± 4.4%. NC12CC3CC(CC(C3)C1)C2 [Amantadine hydrochloride] was tested, and the “% 25 nM CA200645 binding” value was 104.6 ± 3.5%. With CC(C)(Sc1ccc(CCN(CCCCC2CCCCC2)C(=O)NC2CCCCC2)cc1)C(=O)O [GW7647] the “% 25 nM CA200645 binding” value was 55.8 ± 12.2%. CC(C)(C)c1ccc(C(O)CCCN2CCC(C(O)(c3ccccc3)c3ccccc3)CC2)cc1 (centres unmarked) [Terfenadine] was tested, and the “% 25 nM CA200645 binding” value was 101.9 ± 5.3%. With NC(Cc1ccc(Cl)cc1)C(=O)O (racemic) [(±)-p-Chlorophenylalanine] the “% 25 nM CA200645 binding” value was 94.9 ± 9.4%. In the case of COc1ccc(Cc2nccc3cc(OC)c(OC)cc23)cc1OC [Papaverine hydrochloride], the “% 25 nM CA200645 binding” value is reported as 86.6 ± 22.0%. With O=C1OC(=O)[C@H]2[C@@H]1[C@@H]1CC[C@H]2O1 [Norcantharidin] the “% 25 nM CA200645 binding” value was 108.5 ± 19.2%. In the case of Clc1ccc(C(c2ccccc2Cl)C(Cl)Cl)cc1 (centres unmarked), the “% 25 nM CA200645 binding” value is reported as 87.8 ± 23.1%. For CC(C)NC[C@H](O)COc1cccc2ccccc12 [(S)-Propranolol hydrochloride], the “% 25 nM CA200645 binding” value was 100.2 ± 8.9%. CN1C2CCC1CC(OC(=O)c1c[nH]c3ccccc13)C2.Cl (centres unmarked) was tested, and the “% 25 nM CA200645 binding” value was 109.6 ± 9.2%. CCOC(=O)[C@H](CCc1ccccc1)N[C@@H](C)C(=O)N1[C@H](C(=O)O)C[C@H]2CCCC[C@@H]21 [Trandolapril] was tested, and the “% 25 nM CA200645 binding” value was 99.7 ± 12.5%. With CC(C)NNC(=O)c1ccncc1.O=P(O)(O)O [Iproniazid phosphate] the “% 25 nM CA200645 binding” value was 103.0 ± 5.6%. For CCCCCCCC/C=C\CCCCCCCC(=O)NCCO [N-Oleoylethanolamine], the “% 25 nM CA200645 binding” value was 98.2 ± 10.8%. In the case of CN(N=O)c1ccc(O)c(O)c1 [Me-3,4-dephostatin], the “% 25 nM CA200645 binding” value is reported as 87.0 ± 11.0%. In the case of C[C@H](O)[C@H](O)[C@H]1CNc2nc(N)[nH]c(=O)c2N1.Cl, the “% 25 nM CA200645 binding” value is reported as 101.6 ± 17.7%. With O.O.O=C(Nc1ccc2c(c1)CCN(Cc1ncn[nH]1)C2)c1ccccc1-c1ccc(C(F)(F)F)cc1 [CP-346086 dihydrate] the “% 25 nM CA200645 binding” value was 98.2 ± 12.5%. In the case of C=CC[C@H](N)C(=O)O [L-allylglycine], the “% 25 nM CA200645 binding” value is reported as 98.5 ± 1.7%. With COc1cc2nc(N3CCN(C(=O)c4ccco4)CC3)nc(N)c2cc1OC [Prazosin hydrochloride] the “% 25 nM CA200645 binding” value was 109.3 ± 23.7%. With Br.NC1CCc2cc(O)c(O)cc2C1 (centres unmarked) [6,7-ADTN hydrobromide] the “% 25 nM CA200645 binding” value was 100.4 ± 8.1%. In the case of C1CNCCN1.COc1cc(C(O)CO)ccc1O.COc1cc(C(O)CO)ccc1O (centres unmarked) [MHPG piperazine], the “% 25 nM CA200645 binding” value is reported as 95.1 ± 7.6%. For COCCc1ccc(OCC(O)CNC(C)C)cc1.O=C(O)C(O)C(O)C(=O)O (racemic) [(±)-Metoprolol (+)-tartrate], the “% 25 nM CA200645 binding” value was 83.3 ± 9.2%. Cn1cnc2c(NCc3ccccc3)nc(NCCO)nc21 [Olomoucine] was tested, and the “% 25 nM CA200645 binding” value was 97.0 ± 10.1%. With CC(C)(C)NCC(O)COc1cccc2[nH]c(=O)[nH]c12.Cl (racemic) [(±)-CGP-12177A hydrochloride] the “% 25 nM CA200645 binding” value was 114.1 ± 10.3%. For C[C@H](Cc1ccc2c(c1)OC(C(=O)[O-])(C(=O)[O-])O2)NC[C@H](O)c1cccc(Cl)c1.[Na+].[Na+] [CL 316,243], the “% 25 nM CA200645 binding” value was 38.7 ± 18.1%. In the case of Cc1cc2c(C(C)C)c(O)c(O)c(C=O)c2c(O)c1-c1c(C)cc2c(C(C)C)c(O)c(O)c(C=O)c2c1O [Gossypol], the “% 25 nM CA200645 binding” value is reported as 54.1 ± 12.3%. In the case of N#Cc1cc2nc([O-])c([O-])nc2cc1[N+](=O)[O-].[Na+].[Na+] [CNQX disodium], the “% 25 nM CA200645 binding” value is reported as 94.7 ± 15.8%. For Nc1nc(OCc2ccccc2)c2nc[nH]c2n1 [O6-benzylguanine], the “% 25 nM CA200645 binding” value was 65.0 ± 6.0%. For NC(=O)c1ccc2[nH]ccc2c1 [SD-169], the “% 25 nM CA200645 binding” value was 96.7 ± 5.5%. With O=c1ccc2c(OCCCCc3ccccc3)c3ccoc3cc2o1 [Psora-4] the “% 25 nM CA200645 binding” value was 66.4 ± 9.2%. With O=C(O)Cc1c[nH]c2ccc(O)cc12 [5-Hydroxyindolacetic acid] the “% 25 nM CA200645 binding” value was 102.3 ± 8.2%. In the case of O=C(O)CCCCCCCC(=O)O [Azelaic acid], the “% 25 nM CA200645 binding” value is reported as 91.8 ± 5.2%. CN(C)c1ccc(/C=C2\C(=O)Nc3ccccc32)cc1 [SU 4312] was tested, and the “% 25 nM CA200645 binding” value was 53.2 ± 16.7%. With C[C@@H](O)[C@H]1C(=O)N2C(C(=O)O)=C(SCCN=CN)C[C@H]12 [Imipenem monohydrate] the “% 25 nM CA200645 binding” value was 96.8 ± 2.2%. In the case of O.c1cnc2c(c1)ccc1cccnc12 [1,10-Phenanthroline monohydrate], the “% 25 nM CA200645 binding” value is reported as 90.7 ± 13.0%. Nc1nc(Cl)nc2c1ncn2[C@@H]1O[C@H](COP(=O)(O)OP(=O)(O)OP(=O)(O)O)C(O)C1O (stereo in doubt) was tested, and the “% 25 nM CA200645 binding” value was 89.5 ± 23.0%. O=C(/C=C/c1ccc(O)c(O)c1)OCCc1ccccc1 [Caffeic acid phenethyl ester] was tested, and the “% 25 nM CA200645 binding” value was 79.3 ± 10.7%. O=C(O)COCCN1CCN(C(c2ccccc2)c2ccc(Cl)cc2)CC1 (centres unmarked) [Cetirizine dihydrochloride] was tested, and the “% 25 nM CA200645 binding” value was 98.6 ± 19.3%. For O=C(O)c1cc2cc(F)ccc2[nH]1 [5-Fluoroindole-2-carboxylic acid], the “% 25 nM CA200645 binding” value was 92.5 ± 8.9%. C[C@H]1O[C@@H](n2cc(F)c(=O)[nH]c2=O)[C@H](O)[C@@H]1O [5-fluoro-5'-deoxyuridine] was tested, and the “% 25 nM CA200645 binding” value was 95.4 ± 4.3%. CCOC(=O)N1CCC(=C2c3ccc(Cl)cc3CCc3cccnc32)CC1 [Loratadine] was tested, and the “% 25 nM CA200645 binding” value was 85.0 ± 1.8%. O=[N+]([O-])c1ccc(CSc2ncnc3c2ncn3[C@@H]2O[C@H](CO)[C@@H](O)[C@H]2O)cc1 [S-(4-Nitrobenzyl)-6-thioinosine] was tested, and the “% 25 nM CA200645 binding” value was 95.1 ± 33.3%. In the case of N[C@@H](Cn1ccc(=O)c(O)c1)C(=O)O [L-Mimosine from Koa hoale seeds], the “% 25 nM CA200645 binding” value is reported as 106.5 ± 13.7%. With COC1(C2=NCCN2)COc2ccccc2O1.Cl (centres unmarked) [RX 821002 hydrochloride] the “% 25 nM CA200645 binding” value was 101.0 ± 17.5%. With Cl.OCc1c[nH]cn1 [4-Imidazolemethanol hydrochloride] the “% 25 nM CA200645 binding” value was 101.5 ± 8.2%. In the case of CN1C[C@H](C(=O)N[C@]2(C)O[C@@]3(O)[C@@H]4CCCN4C(=O)[C@H](Cc4ccccc4)N3C2=O)C[C@@H]2c3cccc4[nH]cc(c34)C[C@H]21 [Dihydroergotamine methanesulfonate], the “% 25 nM CA200645 binding” value is reported as 99.2 ± 11.1%. For C[N+](C)(C)CCO.[Br-] [Choline bromide], the “% 25 nM CA200645 binding” value was 100.0 ± 6.6%. In the case of C#CCOC(=O)C1=CCCN(C)C1 [Arecaidine propargyl ester hydrobromide], the “% 25 nM CA200645 binding” value is reported as 96.0 ± 12.2%. COC(=O)[C@H]1[C@H]2C[C@@H]3c4[nH]c5cc(OC)ccc5c4CCN3C[C@H]2C[C@@H](OC(=O)c2cc(OC)c(OC)c(OC)c2)[C@@H]1OC [Reserpine] was tested, and the “% 25 nM CA200645 binding” value was 83.8 ± 14.9%. For CCC(NC(C)C)C(O)c1ccc(O)c(O)c1.CS(=O)(=O)O (centres unmarked) [Isotharine mesylate], the “% 25 nM CA200645 binding” value was 102.1 ± 6.6%. For O=C(CCCN1CC=C(n2c(=O)[nH]c3ccccc32)CC1)c1ccc(F)cc1 [Droperidol], the “% 25 nM CA200645 binding” value was 101.2 ± 18.5%. For CC(C)[C@@H]1CC[C@@H](C)C[C@@H]1P(=O)(c1ccccc1)c1ccccc1 [DPO-1], the “% 25 nM CA200645 binding” value was 89.1 ± 3.8%. In the case of O=C(O)CCc1ccc(NCc2cccc(Oc3ccccc3)c2)cc1 [GW9508], the “% 25 nM CA200645 binding” value is reported as 94.4 ± 0.8%. For C[N+](C)(C)CCCCCCCCCC[N+](C)(C)C.[Br-].[Br-] [Decamethonium dibromide], the “% 25 nM CA200645 binding” value was 106.4 ± 21.3%. With Nc1c[n+](N2CCOCC2)no1.[Cl-] [3-Morpholinosydnonimine hydrochloride] the “% 25 nM CA200645 binding” value was 114.0 ± 15.4%. With COC(=O)[C@@H](N)CCCN=C(N)N[N+](=O)[O-].Cl the “% 25 nM CA200645 binding” value was 109.0 ± 16.7%. For O=C(C1CCCCC1)N1CC(=O)N2CCc3ccccc3C2C1 (centres unmarked) [Praziquantel], the “% 25 nM CA200645 binding” value was 100.5 ± 15.0%.

Same assay, conditions: 10 μM compound, 25 nM CA200645, A3AR CHO cells
For C#CCn1c(=O)c2c(ncn2C)n(C)c1=O [DMPX, reference compound], the “hit in LOPAC primary screen (inhibited the binding of CA200645 by >40%)” value was “identified”.

Same assay, conditions: % of control wells (1% DMSO and 25 nM CA200645); compounds at 10 µM; whole live cells expressing the A3AR; mean ± SD, three experiments in duplicate
CCOC(=O)[C@]12CC1/C(=N\O)c1ccccc1O2 (mixture of isomers) [CPCCOEt] was tested, and the “% 25 nM CA200645 binding” value was 88.3 ± 3.9%. With O=C(O)C1=CCCNC1 [Guvacine hydrochloride] the “% 25 nM CA200645 binding” value was 99.3 ± 14.1%. CCCCCN(CCCCC)C(=O)C(CCC(=O)O)NC(=O)c1ccc(Cl)c(Cl)c1 (centres unmarked) [Lorglumide sodium] was tested, and the “% 25 nM CA200645 binding” value was 99.4 ± 5.5%. In the case of NC(=O)CC[C@H](N)C(=O)O [L-Glutamine], the “% 25 nM CA200645 binding” value is reported as 99.9 ± 14.1%. For O=C(O)/C=C/c1ccc(O)c(O)c1 [Caffeic Acid], the “% 25 nM CA200645 binding” value was 100.0 ± 4.2%.
